Structures can show the parent of a compound that is named as a salt.
What was measured:
[1] = biological target: novel receptor obtainable from rat forebrain tissue ([3H]-Compound A binding site); assay: Radioligand binding assay, displacement of [3H]-Compound A from rat forebrain tissue; conditions: competition with [3H]-Compound A, Table
Protocol: WO 92/22293 (SmithKline Beecham) discloses compounds having anti-convulsantactivity, including inter alia the compound trans-(+)-6-acetyl-4S-(4-fluorobenzoylamino)-3,4-dihydro-2,2-dimethyl-2H-1-benzopyran-3R-ol (hereinafter referred to as Compound A). […] The affinity of test compounds to the novel receptor site is assessed as follows. Whole forebrain tissue is obtained from rats. The tissue is first homogenised in buffer (usually 50 mM Tris/HCl, pH 7.4). The homogenised tissue is washed by centrifugation and resuspension in the same buffer, then stored at -70° C. until used. To carry out the radioligand binding assay, aliquots of tissue prepared as above (usually at a concentration of 1-2 mg protein/ml) are mixed with aliquots of [3H]-Compound A dissolved in buffer. The final concentration of [3H]-Compound A in the mixture is usually 20 nM. The mixture is incubated at room temperature for 1 hour. [3H]-Compound A bound to the tissue is then separated from unbound [3H]-Compound A by filtration through Whatman GF/B glass fibre filters. The filters are then washed rapidly with ice-cold buffer. The amount of radioactivity bound to the tissue trapped on the filters is measured by addition of liquid scintillation cocktail to the filters followed by counting in a liquid scintillation counter. In order to determine the amount of "specific" binding of [3H]-Compound A, parallel assays are carried out as above in which [3H]-Compound A and tissue are incubated together in the presence of unlabelled Compound A (usually 3 μM). The amount of binding of [3H]-Compound A remaining in the presence of this unlabelled compound is defined as "non-specific" binding. This amount is subtracted from the total amount of [3H]-Compound A binding (i.e. that present in the absence of unlabelled compound) to obtain the amount of "specific" binding of [3H]-Compound A to the novel site. The affinity of the binding of test compounds to the novel site can be estimated by incubating together [3H]-Compound A and tissue in the presence of a range of concentrations of the compound to be tested. The decrease in the level of specific [3H]-Compound A binding as a result of competition by increasing concentrations of the compound under test is plotted graphically, and non-linear regression analysis of the resultant curve is used to provide an estimate of compound affinity in terms of pKi value.

[2] = test system: maximal electroshock seizure threshold; assay: Maximal electroshock seizure (MEST) threshold test, rat model; assay type: in vivo, rats; conditions: percentage increase in CC50 compared to the control, suspended in 1% methyl cellulose
Protocol: The maximal electroshock seizure (MEST) threshold test in rodents is particularly sensitive for detecting potential anticonvulsant properties^1. In this model, anticonvulsant agents elevate the threshold to electrically-induced seizures whilst proconvulsants lower the seizure threshold. The threshold for maximal (tonic hindlimb extension) electroshock seizures in male rats (Sprague Dawley, 80-150 g, 6 weeks old) was determined by a Hugo Sachs Electronik stimulator which delivered a constant current (0.3 sec duration; from 1-300 mA in steps of 5-20 mA). The procedure is similar to that outlined above for mouse and full details are as published by Upton et al,.^4 The percentage increase or decrease in CC50 for each group compared to the control is calculated. Drugs are suspended in 1% methyl cellulose.

[3] = test system: maximal electroshock seizure threshold; assay: Maximal electroshock seizure (MEST) threshold test, mouse model; assay type: in vivo, mice; conditions: 10 mg/kg p.o. at 2 h
Protocol: The maximal electroshock seizure (MEST) threshold test in rodents is particularly sensitive for detecting potential anticonvulsant properties^1. In this model, anticonvulsant agents elevate the threshold to electrically-induced seizures whilst proconvulsants lower the seizure threshold.
Mice (naive male, Charles River, U.K. CD-1 strain, 25-30 g) are randomly assigned to groups of 10-20 and dosed orally or intraperitoneally at a dose volume of 10 ml/kg with various doses of compound (0.3-300 mg/kg) or vehicle. […] The mean current and standard error required to induce a tonic seizure in 50% (CC50) of the mice in a particular treatment group is determined by the `up and down` method of Dixon and Mood (1948)^2. Statistical comparisons between vehicle- and drug-treated groups are made using the method of Litchfield and Wilcoxon (1949)^3.
In control animals the CC50 is usually 14-18 mA. […] If a tonic convulsion does occur, then the current is decreased, and so on until all the animals in the group have been tested.
Studies are carried out using a Hugo Sachs Electronik Constant Current Shock Generator with totally variable control of shock level from 0 to 300 mA and steps of 2 mA are usually used.

| SMILES | pKI Compound A [1] | Rat MEST at 2 mg/kg p.o at 2h (increases) [2] | percentage increases in seizure threshold [3] [%] |
| --- | --- | --- | --- |
| COc1ccc(C(=O)Nc2ccc3c(c2)CN(C)CC3(C)C)cc1C(F)(F)F.Cl [Example 7, N-(2,4,4-Trimethyl-4H-isoquinolin-7-yl)-4-methoxy-3-trifluoromethylbenzamide, hydrochloride] | 8.5 | 510 |  |
| CCOc1ccc(C(=O)Nc2ccc3c(c2)CN(C)CC3(C)C)cc1Br [Example 10, N-(2,4,4-Trimethyl-4H-isoquinolin-7-yl)-3-bromo-4-ethoxybenzamide] | 8.2 | 294 |  |
| CC(C)c1ccc(C(=O)Nc2ccc3c(c2)CN(C)CC3(C)C)cc1C#N [Example 8, N-(2,4,4-Trimethyl-4H-isoquinolin-7-yl)-3-cyano-4-iso-propylbenzamide] | 8.0 | 120 |  |
| COc1cc(C(C)(C)C)ccc1C(=O)Nc1cccc2c1CCN(C)C2C (racemic) [Example 5, (±) N-(1,2-Dimethyl-1,2,3,4-tetrahydroisoquinolin-5-yl)-tert-butyl-2-methoxybenzamide, hydrochloride] |  |  | 46 |
| COc1cc(OC(C)C)c(Cl)cc1C(=O)Nc1cccc2c1CCN(C)C2C (racemic) [Example 4, (±) N-(1,2-Dimethyl-1,2,3,4-tetrahydroisoquinolin-5-yl)-5-chloro-4-iso-propoxy-2-methoxybenzamide, hydrochloride] |  |  | 47 |
| COc1cc(C)c(C(F)(F)F)cc1C(=O)Nc1cccc2c1CCN(C)C2C (racemic) [Example 6, (±) N-(1,2-Dimethyl-1,2,3,4-tetrahydroisoquinolin-5-yl)-5-trifluoromethyl-2-methoxy-4-methyl benzamide, hydrochloride] |  |  | 36 |
| CCc1ccc(C(=O)Nc2ccc3c(c2)CN(C)CC3(C)C)cc1Br [Example 9, N-(2,4,4,-Trimethyl-4H-isoquinolin-7-yl)-3-bromo-4-ethylbenzamide] | 8.3 | 53 |  |
| CC(C)Oc1ccc(C(=O)Nc2ccc3c(c2)CN(C)CC3(C)C)cc1Cl [Example 11, N-(2,4,4-Trimethyl-4H-isoquinolin-7-yl)-3-chloro--4-iso-propoxybenzamide] | 7.9 | 204 |  |
